Assay results published in patent publication US6825230B2, “Spiro and dispiro 1,2,4-trixolane antimalarials” (Medicines for Malaria Venture MMV, priority 2002, dated 2004).
Converted amounts (≈) assume the structure as drawn. Like-named read-outs stand apart in the source and are kept apart here.

How the values were obtained:
[1] = tested on: chloroquine-sensitive NF54 strain of P. falciparum; experiment: In vitro antimalarial semiautomated microdilution assay ([3H]-hypoxanthine incorporation), NF54 strain; type: cell-based, Plasmodium falciparum; settings: for IC50: Plasmodium falciparum
Outline: (§1)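 IC50 comes from Logit regression of [3H]-hypoxanthine incorporation data. Intraerythrocytic P. falciparum taken from asynchronous stock cultures is exposed to OZ compounds in a semiautomated microdilution format.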

[2] = tested on: ANKA strain of P. berghei; experiment: Single dose STI in vivo screen in infected mice; design: species or system Plasmodium berghei; settings: for Survival (days) 10 mg/kg po: single 10 mg/kg po in 3% ethanol and 7% Tween 80; for Survival (days) 10 mg/kg po / Survival (days) 10 mg/kg SSV po / Survival (days) 10 mg/kg sc: untreated 6-7 days; for Activity (%) 10 mg/kg po: single 10 mg/kg po in 3% ethanol and 7% Tween 80 on day 1 post-infection; for Activity (%) 10 mg/kg po / Activity (%) 10 mg/kg SSV po / Activity (%) 10 mg/kg sc: percent reduction in parasitemia on day 3; for Survival (days) 10 mg/kg SSV po: single 10 mg/kg po in SSV; for Activity (%) 10 mg/kg SSV po: single 10 mg/kg po in standard suspending vehicle (SSV) on day 1 post-infection; for Survival (days) 10 mg/kg sc: single 10 mg/kg sc in 3% ethanol and 7% Tween 80; for Activity (%) 10 mg/kg sc: single 10 mg/kg sc in 3% ethanol and 7% Tween 80 on day 1 post-infection
[3] = tested on: Schistosoma mansoni 21-day-old schistosomules; experiment: Effect on 21-day-old schistosomules in infected mice; type: in vivo; settings: for % reduction of schistosomule growth at day 21 after per os application of 200 mg/kg, FWR (%): female worm reduction rate
Experimental: Mice were infected with 100 Schistosoma mansoni cercariae on day 21 post-treatment. Each group was treated per os with trioxolanes at a single dose of 200 mg/kg. […] All groups were killed 4 weeks after treatment and the liver and intestine were removed and separated. The liver and intestine were compressed and alive male and female worms could be seen and counted. The effect of the compounds was evaluated by mean total and female worm burden.

[4] = tested on: Schistosoma mansoni adult worms (49-day-old); experiment: Effect on adult schistosomes (49-day-old) in infected mice; type: in vivo; settings: single 400 mg/kg per os
Experimental: Mice were infected with 100 Schistosoma mansoni cercariae on day 49 post-treatment. Each group was treated per os with OZ compounds at single doses of 200, 400, and 600 mg/kg. Untreated mice served as the control. All groups were killed 4 weeks after treatment and the liver and intestine were removed and separated. The liver and intestine were compressed and alive male and female worms could be seen and counted.

[5] = tested on: chloroquine-resistant K1 strain of P. falciparum; experiment: In vitro antimalarial semiautomated microdilution assay ([3H]-hypoxanthine incorporation), K1 strain; type: cell-based, Plasmodium falciparum; settings: for IC50: Plasmodium falciparum
Outline: as §1

[6] = NF54, 72 h, read-out: IC50 (ng/ml) NF54, chloroquine-sensitive NF54 strain, 72 h incubation
[7] = single 200 mg/kg per os, 21-day-old schistosomules
[8] = single 200 mg/kg per os, 21-day-old schistosomules, total worm reduction rate
[9] = K1, 72 h, read-out: IC50 (ng/ml) K1, chloroquine-resistant K1 strain, 72 h incubation
[10] = chloroquine-resistant K1 strain, 72 h incubation, read-out: IC50 (ng/ml) K1
[11] = chloroquine-sensitive NF54 strain, 72 h incubation, read-out: IC50 (ng/ml) NF54

SMILES | IC50 [1, 6] | % reduction of schistosomule growth at day 21 after per os application of 200 mg/kg, FWR (%) [3, 7] | % reduction of schistosomule growth at day 21 after per os application of 200 mg/kg, TWR (%) [3, 8] | Survival (days) 10 mg/kg po [2] | Activity (%) 10 mg/kg po [2] | Survival (days) 10 mg/kg SSV po [2] | Activity (%) 10 mg/kg SSV po [2] | Survival (days) 10 mg/kg sc [2] | Activity (%) 10 mg/kg sc [2] | IC50 [5, 9] | further results
NC[C@H]1CC[C@]2(CC1)OOC1(O2)C2CC3CC(C2)CC1C3 (stereo partly shown) [OZ163] | 0.2 ng/mL (≈ 0.682 nM) | 80% | – | – | – | – | – | – | – | – | Survival (days) 10 mg/kg po ([2]; hydrochloride, 10 mg/kg): 8.0 days; Activity (%) 10 mg/kg po ([2]; hydrochloride, 10 mg/kg): 99.90%; Survival (days) 10 mg/kg SSV po ([2]; hydrochloride, 10 mg/kg): 9.0 days; Activity (%) 10 mg/kg SSV po ([2]; hydrochloride, 10 mg/kg): 99.94%; Survival (days) 10 mg/kg sc ([2]; hydrochloride, 10 mg/kg): 9.7 days; Activity (%) 10 mg/kg sc ([2]; hydrochloride, 10 mg/kg): 100%
O=C1CCC2(CC1)OOC1(CCCCCCCCCCC1)O2 [OZ21] | – | 0% | 0% | – | – | – | – | – | – | – | % reduction of adult worms growth at day 49 after per os application of 400 mg/kg, TWR (%) ([4]; 49-day-old adults, total worm reduction rate): 0/0%; Adult worms day 49, per os 400 mg/kg, DEAD WORM (%) ([4]; percentage of dead worm in the liver): 0/0%
CC(C)(C)CC(=O)N1CCC2(CC1)OOC1(O2)C2CC3CC(C2)CC1C3 (stereo not shown) [OZ111, Adamantane-2-spiro-3′-8′-(3′,3′-dimethylbutanoyl)-1′,2′,4′-trioxa-8′-azaspiro[4.5]decane] | – | 68% | 71% | 7.7 days | 98% | 6.3 days | 79% | 8.3 days | 99.94% | – | –
CN1CCN(C(=O)N2CCC3(CC2)OOC2(O3)C3CC4CC(C3)CC2C4)CC1 (stereo not shown) [OZ157, Adamantane-2-spiro-3′-8′-[(4′-methyl-1′-piperazinyl)carbonyl]-1′,2′,4′-trioxa-8′-azaspiro[4.5]decane] | 0.22 ng/mL (≈ 0.562 nM) | 68% | 65% | 7.3 days | 90% | 8.3 days | 80% | 8.3 days | 97% | 0.2 ng/mL (≈ 0.511 nM) | –
O=[N+]([O-])c1ccc(N2CCC3(CC2)OOC2(O3)C3CC4CC(C3)CC2C4)cc1 (stereo not shown) [OZ151, Adamantane-2-spiro-3′-8′-(4′-nitrophenyl)-1′,2′,4′-trioxa-8′-azaspiro[4.5]decane] | – | 19% | – | 7.3 days | 71% | 7.3 days | 71% | 11.0 days | 99.63% | – | IC50 [5, 10]: 3.8 ng/mL (≈ 9.83 nM); IC50 [1, 11]: 4 ng/mL (≈ 10.4 nM); % reduction of schistosomule growth at day 21 after per os application of 200 mg/kg, TWR (%) ([3]; po, 200 mg/kg, 504 h): 19%
c1cn(C[C@H]2CC[C@]3(CC2)OOC2(O3)C3CC4CC(C3)CC2C4)cn1 (stereo partly shown) [OZ145] | – | 83% | – | – | – | – | – | – | – | – | IC50 [5, 10]: 0.5 ng/mL (≈ 1.45 nM); IC50 [1, 11]: 0.76 ng/mL (≈ 2.21 nM); Survival (days) 10 mg/kg po ([2]; 10 mg/kg): 8.3 days; Activity (%) 10 mg/kg po ([2]; 10 mg/kg): 99.82%; Survival (days) 10 mg/kg SSV po ([2]; 10 mg/kg): 10.7 days; Activity (%) 10 mg/kg SSV po ([2]; 10 mg/kg): 99.21%; Survival (days) 10 mg/kg sc ([2]; 10 mg/kg): 10.7 days; Activity (%) 10 mg/kg sc ([2]; 10 mg/kg): 99.87%; % reduction of schistosomule growth at day 21 after per os application of 200 mg/kg, TWR (%) ([3]; po, 200 mg/kg, 504 h): 80%
OC12CC3CC(C1)C1(OOC4(CCC5(CC4)OCCO5)O1)C(C3)C2 (stereo not shown) [OZ152, 5-Hydroxyadamantane-2-spiro-3′-1′,2′,4′,9′,12′-pentaoxadispiro[4.2.4.2]tetradecane] | – | 11% | 19% | 6.3 days | – | – | – | – | – | – | IC50 (ng/ml) K1 ([5]; chloroquine-resistant K1 strain, 72 h incubation): 3.2 ng/mL (≈ 9.46 nM); IC50 (ng/ml) NF54 ([1]; chloroquine-sensitive NF54 strain, 72 h incubation): 7.2 ng/mL (≈ 21.3 nM); Activity (%) 10 mg/kg po ([2]; 10 mg/kg): 0%; Survival (days) 10 mg/kg SSV po ([2]; 10 mg/kg): 6.7 days; Activity (%) 10 mg/kg SSV po ([2]; 10 mg/kg): 12%; Survival (days) 10 mg/kg sc ([2]; 10 mg/kg): 6.7 days; Activity (%) 10 mg/kg sc ([2]; 10 mg/kg): 22%
c1ccc(CNC2CCC3(CC2)OOC2(O3)C3CC4CC(C3)CC2C4)cc1 (stereo not shown) [OZ160] | 0.87 ng/mL (≈ 2.35 nM) | 0% | 0% | 6.3 days | 45% | 6.7 days | 43% | 12.0 days | 99.94% | 0.7 ng/mL (≈ 1.89 nM) | –
C1C2CC3CC1CC(C2)C31OOC2(CCC3(CC2)OOC2(O3)C3CC4CC(C3)CC2C4)O1 (stereo not shown) [OZ169, Adamantane-2-spiro-3′-1′,2′,4′,9′,10′,12′-hexaoxadispiro[4.2.4.2]tetradecane-11′-spiro-2″-adamantane] | > 10 ng/mL | 0% | 0% | 7.7 days | 98% | 6.7 days | 22% | 9.0 days | 99.76% | 15 ng/mL (≈ 33.7 nM) | –
C1CCN(C2CCC3(CC2)OOC2(O3)C3CC4CC(C3)CC2C4)CC1 (stereo not shown) [OZ159] | 0.94 ng/mL (≈ 2.71 nM) | 19% | 19% | 6.7 days | 34% | 6.7 days | 31% | 9.0 days | 98% | 0.7 ng/mL (≈ 2.01 nM) | –
OC[C@H]1CC[C@]2(CC1)OOC1(O2)C2CC3CC(C2)CC1C3 (stereo partly shown) [OZ119] | – | 87% | – | 7.7 days | 99.29% | 8.0 days | 99.15% | 8.3 days | 99.66% | – | IC50 [5, 10]: 0.83 ng/mL (≈ 2.82 nM); IC50 [1, 11]: 0.2 ng/mL (≈ 0.679 nM); % reduction of schistosomule growth at day 21 after per os application of 200 mg/kg, TWR (%) ([3]; po, 200 mg/kg, 504 h): 88%
